{"source": "patent US12539292B2", "about": "“BRM targeting compounds and associated methods of use” (Arvinas Operations, Inc., priority 2018, dated 2026)", "target": "T1, BRM (Homo sapiens, UniProt P51531)", "T1 construct": "In-Cell Western Screen of BRM Degradation in SW1573 Cells; endogenous in cells; host or cells: SW1573", "T1 sequence (P51531 whole entry)": "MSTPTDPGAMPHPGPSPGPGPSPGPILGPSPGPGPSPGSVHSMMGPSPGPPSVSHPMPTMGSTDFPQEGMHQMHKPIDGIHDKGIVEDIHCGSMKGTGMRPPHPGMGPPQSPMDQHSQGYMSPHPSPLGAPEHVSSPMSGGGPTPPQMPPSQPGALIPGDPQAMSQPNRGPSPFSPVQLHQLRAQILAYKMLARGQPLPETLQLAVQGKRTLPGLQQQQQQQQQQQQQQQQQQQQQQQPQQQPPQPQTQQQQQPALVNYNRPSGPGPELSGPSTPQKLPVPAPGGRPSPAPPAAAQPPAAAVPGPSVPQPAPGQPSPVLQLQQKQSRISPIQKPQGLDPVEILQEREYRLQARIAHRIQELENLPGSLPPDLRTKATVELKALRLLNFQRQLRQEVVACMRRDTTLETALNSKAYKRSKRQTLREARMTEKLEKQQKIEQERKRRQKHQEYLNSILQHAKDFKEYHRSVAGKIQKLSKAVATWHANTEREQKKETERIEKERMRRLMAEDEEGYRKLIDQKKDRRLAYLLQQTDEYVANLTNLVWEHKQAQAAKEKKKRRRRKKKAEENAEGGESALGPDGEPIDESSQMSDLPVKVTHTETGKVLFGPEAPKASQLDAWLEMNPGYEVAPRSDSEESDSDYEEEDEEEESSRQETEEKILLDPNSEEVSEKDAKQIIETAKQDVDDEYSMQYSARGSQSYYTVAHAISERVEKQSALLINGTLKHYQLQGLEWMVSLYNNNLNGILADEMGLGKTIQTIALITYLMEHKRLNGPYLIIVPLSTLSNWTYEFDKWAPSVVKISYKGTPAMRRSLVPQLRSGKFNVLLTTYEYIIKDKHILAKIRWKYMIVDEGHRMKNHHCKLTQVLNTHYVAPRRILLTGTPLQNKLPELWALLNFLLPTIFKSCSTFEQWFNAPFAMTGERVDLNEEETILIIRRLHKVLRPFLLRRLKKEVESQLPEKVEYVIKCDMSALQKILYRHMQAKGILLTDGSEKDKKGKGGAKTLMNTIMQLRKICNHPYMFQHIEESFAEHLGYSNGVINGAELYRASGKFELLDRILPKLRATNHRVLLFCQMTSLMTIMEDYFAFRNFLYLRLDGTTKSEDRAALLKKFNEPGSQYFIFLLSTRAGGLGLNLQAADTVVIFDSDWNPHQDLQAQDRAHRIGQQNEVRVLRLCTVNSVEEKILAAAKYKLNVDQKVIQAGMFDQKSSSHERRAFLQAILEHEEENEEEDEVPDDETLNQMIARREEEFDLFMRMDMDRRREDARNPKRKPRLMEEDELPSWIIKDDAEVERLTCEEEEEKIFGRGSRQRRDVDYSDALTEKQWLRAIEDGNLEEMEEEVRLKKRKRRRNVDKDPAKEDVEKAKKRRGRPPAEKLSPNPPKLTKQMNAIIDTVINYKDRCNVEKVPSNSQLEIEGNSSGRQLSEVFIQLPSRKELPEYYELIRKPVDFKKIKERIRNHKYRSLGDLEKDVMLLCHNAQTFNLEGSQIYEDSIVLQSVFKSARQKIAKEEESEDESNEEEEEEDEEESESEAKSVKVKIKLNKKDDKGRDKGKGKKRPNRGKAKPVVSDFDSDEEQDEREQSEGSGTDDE", "test": "In-cell Western screen of BRM degradation in SW1573 cells (Dmax and DC50)", "assay_type": "cell-based", "conditions": "for Dmax: SW1573, % degraded, when tested at the top concentration of between 0.3 and 10 μM, read-out: BRM Dmax (%); for DC50: target protein degradation, read-out: BRM DC50", "summary_of_the_method": "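SW1573 cells were treated with compound overnight (18-20 h; final DMSO 0.1%), then fixed in 4% PFA, permeabilized with Triton X-100 and blocked. BRM was detected by in-cell Western using 800 nm anti-rabbit and 680 nm anti-mouse secondaries, and Dmax and DC50 were derived from the LI-COR Odyssey signal.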", "data": [{"compound": "Cc1ncsc1-c1ccc([C@H](C)NC(=O)[C@@H]2C[C@@H](O)CN2C(=O)[C@@H](c2cc(OCCCN3CCN(CCCOc4cc(N5C6CCC5CN(c5cc(-c7ccccc7O)nnc5N)C6)ccn4)CC3)no2)C(C)C)cc1", "note": "[compound 385, (2S,4R)-1-((2R)-2-(3-(3-(4-(3-((4-(3-(3-amino-6-(2-hydroxyphenyl)pyridazin-4-yl)-3,8-diazabicyclo[3.2.1]octan-8-yl)pyridin-2-yl)oxy)propyl)piperazin-1-yl)propoxy)isoxazol-5-yl)-3-methylbutanoyl)-4-hydroxy-N-((S)-1-(4-(4-methylthiazol-5-yl)phenyl)ethyl)pyrrolidine-2-carboxamide]", "values": [{"measurement": "Dmax", "value": "> 75", "unit": "%"}, {"measurement": "DC50", "value": "< 0.0025", "unit": "µM"}]}, {"compound": "CC(C)[C@H](C(=O)N1C[C@H](O)C[C@H]1C(=O)N[C@@H](C)c1ccc(C#N)cc1)c1cc(OCC#Cc2ncc(O[C@H]3C[C@H](Oc4cc(N5C6CCC5CN(c5cc(-c7ccccc7O)nnc5N)C6)ccn4)C3)cn2)no1", "note": "[compound 386, (2S,4R)-1-((2S)-2-(3-((3-(5-((1r,3S)-3-((4-(3-(3-amino-6-(2-hydroxyphenyl)pyridazin-4-yl)-3,8-diazabicyclo[3.2.1]octan-8-yl)pyridin-2-yl)oxy)cyclobutoxy)pyrimidin-2-yl)prop-2-yn-1-yl)oxy)isoxazol-5-yl)-3-methylbutanoyl)-N-((S)-1-(4-cyanophenyl)ethyl)-4-hydroxypyrrolidine-2-carboxamide]", "values": [{"measurement": "Dmax", "value": "> 75", "unit": "%"}, {"measurement": "DC50", "value": "0.01 to 0.03", "unit": "µM"}]}, {"compound": "CC(C)[C@@H](C(=O)N1C[C@H](O)C[C@H]1C(=O)N[C@@H](C)c1ccc(C#N)cc1)c1cc(OCC#Cc2ncc(O[C@H]3C[C@H](Oc4cc(N5C6CCC5CN(c5cc(-c7ccccc7O)nnc5N)C6)ccn4)C3)cn2)no1", "note": "[compound 387, (2S,4R)-1-((2R)-2-(3-((3-(5-((1r,3R)-3-((4-(3-(3-amino-6-(2-hydroxyphenyl)pyridazin-4-yl)-3,8-diazabicyclo[3.2.1]octan-8-yl)pyridin-2-yl)oxy)cyclobutoxy)pyrimidin-2-yl)prop-2-yn-1-yl)oxy)isoxazol-5-yl)-3-methylbutanoyl)-N-((S)-1-(4-cyanophenyl)ethyl)-4-hydroxypyrrolidine-2-carboxamide]", "values": [{"measurement": "Dmax", "value": "> 75", "unit": "%"}, {"measurement": "DC50", "value": "< 0.0025", "unit": "µM"}]}, {"compound": "Cc1ncsc1-c1ccc([C@H](C)NC(=O)[C@@H]2C[C@@H](O)CN2C(=O)[C@@H](c2cc(OCCN[C@H]3CC[C@@H](O[C@H]4C[C@@H](Oc5cc(N6C7CCC6CN(c6cc(-c8ccccc8O)nnc6N)C7)ccn5)C4)CC3)no2)C(C)C)cn1", "note": "[compound 388, (2S,4R)-1-((2R)-2-(3-(2-(((1S,4S)-4-((1r,3S)-3-((4-(3-(3-amino-6-(2-hydroxyphenyl)pyridazin-4-yl)-3,8-diazabicyclo[3.2.1]octan-8-yl)pyridin-2-yl)oxy)cyclobutoxy)cyclohexyl)amino)ethoxy)isoxazol-5-yl)-3-methylbutanoyl)-4-hydroxy-N-((S)-1-(6-(4-methylthiazol-5-yl)pyridin-3-yl)ethyl)pyrrolidine-2-carboxamide]", "values": [{"measurement": "Dmax", "value": "> 75", "unit": "%"}, {"measurement": "DC50", "value": "0.0025 to 0.01", "unit": "µM"}]}, {"compound": "Cc1ncsc1-c1ccc([C@H](C)NC(=O)[C@@H]2C[C@@H](O)CN2C(=O)[C@H](c2cc(OCCCCN3CCN(CCCCOc4cc(N5C6CCC5CN(c5cc(-c7ccccc7O)nnc5N)C6)ccn4)CC3)no2)C(C)C)cc1", "note": "[compound 389, (2S,4R)-1-((2S)-2-(3-(4-(4-(4-((4-(3-(3-amino-6-(2-hydroxyphenyl)pyridazin-4-yl)-3,8-diazabicyclo[3.2.1]octan-8-yl)pyridin-2-yl)oxy)butyl)piperazin-1-yl)butoxy)isoxazol-5-yl)-3-methylbutanoyl)-4-hydroxy-N-((S)-1-(4-(4-methylthiazol-5-yl)phenyl)ethyl)pyrrolidine-2-carboxamide]", "values": [{"measurement": "Dmax", "value": "> 75", "unit": "%"}, {"measurement": "DC50", "value": "0.01 to 0.03", "unit": "µM"}]}, {"compound": "Cc1ncsc1-c1ccc([C@H](C)NC(=O)[C@@H]2C[C@@H](O)CN2C(=O)[C@@H](c2cc(OCCCCN3CCN(CCCCOc4cc(N5C6CCC5CN(c5cc(-c7ccccc7O)nnc5N)C6)ccn4)CC3)no2)C(C)C)cc1", "note": "[compound 390, (2S,4R)-1-((2R)-2-(3-(4-(4-(4-((4-(3-(3-amino-6-(2-hydroxyphenyl)pyridazin-4-yl)-3,8-diazabicyclo[3.2.1]octan-8-yl)pyridin-2-yl)oxy)butyl)piperazin-1-yl)butoxy)isoxazol-5-yl)-3-methylbutanoyl)-4-hydroxy-N-((S)-1-(4-(4-methylthiazol-5-yl)phenyl)ethyl)pyrrolidine-2-carboxamide]", "values": [{"measurement": "Dmax", "value": "> 75", "unit": "%"}, {"measurement": "DC50", "value": "< 0.0025", "unit": "µM"}]}, {"compound": "Cc1ncsc1-c1ccc([C@H](C)NC(=O)[C@@H]2C[C@@H](O)CN2C(=O)[C@H](c2cc(OC/C=C/c3ncc(O[C@H]4C[C@H](Oc5cc(N6C7CCC6CN(c6cc(-c8ccccc8O)nnc6N)C7)ccn5)C4)cn3)no2)C(C)C)cc1", "note": "[compound 391, (2S,4R)-1-((2S)-2-(3-(((E)-3-(5-((1r,3S)-3-((4-(3-(3-amino-6-(2-hydroxyphenyl)pyridazin-4-yl)-3,8-diazabicyclo[3.2.1]octan-8-yl)pyridin-2-yl)oxy)cyclobutoxy)pyrimidin-2-yl)allyl)oxy)isoxazol-5-yl)-3-methylbutanoyl)-4-hydroxy-N-((S)-1-(4-(4-methylthiazol-5-yl)phenyl)ethyl)pyrrolidine-2-carboxamide]", "values": [{"measurement": "DC50", "value": "> 0.03", "unit": "µM"}]}, {"compound": "Cc1ncsc1-c1ccc([C@H](C)NC(=O)[C@@H]2C[C@@H](O)CN2C(=O)[C@@H](c2cc(OC/C=C/c3ncc(O[C@H]4C[C@H](Oc5cc(N6C7CCC6CN(c6cc(-c8ccccc8O)nnc6N)C7)ccn5)C4)cn3)no2)C(C)C)cc1", "note": "[compound 392, (2S,4R)-1-((2R)-2-(3-(((E)-3-(5-((1r,3R)-3-((4-(3-(3-amino-6-(2-hydroxyphenyl)pyridazin-4-yl)-3,8-diazabicyclo[3.2.1]octan-8-yl)pyridin-2-yl)oxy)cyclobutoxy)pyrimidin-2-yl)allyl)oxy)isoxazol-5-yl)-3-methylbutanoyl)-4-hydroxy-N-((S)-1-(4-(4-methylthiazol-5-yl)phenyl)ethyl)pyrrolidine-2-carboxamide]", "values": [{"measurement": "Dmax", "value": "> 75", "unit": "%"}, {"measurement": "DC50", "value": "< 0.0025", "unit": "µM"}]}, {"compound": "Cc1nccn1-c1ccc([C@H](C)NC(=O)[C@@H]2C[C@@H](O)CN2C(=O)[C@H](c2cc(OCC#Cc3ncc(O[C@H]4C[C@H](Oc5cc(N6C7CCC6CN(c6cc(-c8ccccc8O)nnc6N)C7)ccn5)C4)cn3)no2)C(C)C)cc1", "note": "[compound 393, (2S,4R)-1-((2S)-2-(3-((3-(5-((1r,3S)-3-((4-(3-(3-amino-6-(2-hydroxyphenyl)pyridazin-4-yl)-3,8-diazabicyclo[3.2.1]octan-8-yl)pyridin-2-yl)oxy)cyclobutoxy)pyrimidin-2-yl)prop-2-yn-1-yl)oxy)isoxazol-5-yl)-3-methylbutanoyl)-4-hydroxy-N-((S)-1-(4-(2-methyl-1H-imidazol-1-yl)phenyl)ethyl)pyrrolidine-2-carboxamide]", "values": [{"measurement": "Dmax", "value": "> 75", "unit": "%"}, {"measurement": "DC50", "value": "> 0.03", "unit": "µM"}]}, {"compound": "Cc1nccn1-c1ccc([C@H](C)NC(=O)[C@@H]2C[C@@H](O)CN2C(=O)[C@@H](c2cc(OCC#Cc3ncc(O[C@H]4C[C@H](Oc5cc(N6C7CCC6CN(c6cc(-c8ccccc8O)nnc6N)C7)ccn5)C4)cn3)no2)C(C)C)cc1", "note": "[compound 394, (2S,4R)-1-((2R)-2-(3-((3-(5-((1r,3R)-3-((4-(3-(3-amino-6-(2-hydroxyphenyl)pyridazin-4-yl)-3,8-diazabicyclo[3.2.1]octan-8-yl)pyridin-2-yl)oxy)cyclobutoxy)pyrimidin-2-yl)prop-2-yn-1-yl)oxy)isoxazol-5-yl)-3-methylbutanoyl)-4-hydroxy-N-((S)-1-(4-(2-methyl-1H-imidazol-1-yl)phenyl)ethyl)pyrrolidine-2-carboxamide]", "values": [{"measurement": "Dmax", "value": "> 75", "unit": "%"}, {"measurement": "DC50", "value": "< 0.0025", "unit": "µM"}]}, {"compound": "Cc1ncsc1-c1ccc([C@H](C)NC(=O)[C@@H]2C[C@@H](O)CN2C(=O)[C@@H](c2cc(OCCN3CCC(O[C@H]4C[C@H](OCC#CCn5cc(-c6cc(-c7ccccc7O)nnc6N)cn5)C4)CC3)no2)C(C)C)cc1", "note": "[compound 395, (2S,4R)-1-((R)-2-(3-(2-(4-((1r,3R)-3-((4-(4-(3-amino-6-(2-hydroxyphenyl)pyridazin-4-yl)-1H-pyrazol-1-yl)but-2-yn-1-yl)oxy)cyclobutoxy)piperidin-1-yl)ethoxy)isoxazol-5-yl)-3-methylbutanoyl)-4-hydroxy-N-((S)-1-(4-(4-methylthiazol-5-yl)phenyl)ethyl)pyrrolidine-2-carboxamide]", "values": [{"measurement": "Dmax", "value": "> 75", "unit": "%"}, {"measurement": "DC50", "value": "< 0.0025", "unit": "µM"}]}, {"compound": "Cc1ncsc1-c1ccc([C@H](C)NC(=O)[C@@H]2C[C@@H](O)CN2C(=O)[C@@H](c2cc(OCCN[C@H]3CC[C@H](O[C@H]4C[C@H](Oc5cc(N6C7CCC6CN(c6cc(-c8ccccc8O)nnc6N)C7)ccn5)C4)CC3)no2)C(C)C)cn1", "note": "[compound 396, (2S,4R)-1-((2R)-2-(3-(2-(((1R,4R)-4-((1r,3R)-3-((4-(3-(3-amino-6-(2-hydroxyphenyl)pyridazin-4-yl)-3,8-diazabicyclo[3.2.1]octan-8-yl)pyridin-2-yl)oxy)cyclobutoxy)cyclohexyl)amino)ethoxy)isoxazol-5-yl)-3-methylbutanoyl)-4-hydroxy-N-((S)-1-(6-(4-methylthiazol-5-yl)pyridin-3-yl)ethyl)pyrrolidine-2-carboxamide]", "values": [{"measurement": "Dmax", "value": "> 75", "unit": "%"}, {"measurement": "DC50", "value": "0.0025 to 0.01", "unit": "µM"}]}, {"compound": "Cc1nccn1-c1ccc([C@H](C)NC(=O)[C@@H]2C[C@@H](O)CN2C(=O)[C@H](c2cc(OCCN3CCC(O[C@H]4C[C@H](Oc5cc(N6C7CCC6CN(c6cc(-c8ccccc8O)nnc6N)C7)ccn5)C4)CC3)no2)C(C)C)cn1", "note": "[compound 397, (2S,4R)-1-((2S)-2-(3-(2-(4-((1r,3S)-3-((4-(3-(3-amino-6-(2-hydroxyphenyl)pyridazin-4-yl)-3,8-diazabicyclo[3.2.1]octan-8-yl)pyridin-2-yl)oxy)cyclobutoxy)piperidin-1-yl)cthoxy)isoxazol-5-yl)-3-methylbutanoyl)-4-hydroxy-N-((S)-1-(6-(2-methyl-1H-imidazol-1-yl)pyridin-3-yl)ethyl)pyrrolidine-2-carboxamide]", "values": [{"measurement": "DC50", "value": "> 0.03", "unit": "µM"}]}]}
